Assay results from article PMC10714182 (JACC: Basic to Translational Science, 2023).
pIC50: −log10 of the molar value.

Columns and labels:
[1] = test system: Sugen-hypoxia (Su/Hx) mouse model of PAH; assay: Sugen-hypoxia experimental PAH, prevention study; format: in vivo, C57BL/6 mice
[2] = target: T1, 5-HT2B (Homo sapiens, UniProt P41595); assay: 5-HT2B functional readouts; format: cell-based; settings: calcium mobilization and G protein dissociation (BRET2)
[3] = target: T1, 5-HT2B; settings: read-out: previously reported IC50; cited from earlier work
[4] = test system: Sugen-hypoxia (Su/Hx) mouse model of PAH; assay: Sugen-hypoxia experimental PAH, interventional study; format: in vivo, C57BL/6 mice; settings: intervention, treatment for 2 weeks after 2 weeks of PAH induction

T1 sequence (P41595 whole entry): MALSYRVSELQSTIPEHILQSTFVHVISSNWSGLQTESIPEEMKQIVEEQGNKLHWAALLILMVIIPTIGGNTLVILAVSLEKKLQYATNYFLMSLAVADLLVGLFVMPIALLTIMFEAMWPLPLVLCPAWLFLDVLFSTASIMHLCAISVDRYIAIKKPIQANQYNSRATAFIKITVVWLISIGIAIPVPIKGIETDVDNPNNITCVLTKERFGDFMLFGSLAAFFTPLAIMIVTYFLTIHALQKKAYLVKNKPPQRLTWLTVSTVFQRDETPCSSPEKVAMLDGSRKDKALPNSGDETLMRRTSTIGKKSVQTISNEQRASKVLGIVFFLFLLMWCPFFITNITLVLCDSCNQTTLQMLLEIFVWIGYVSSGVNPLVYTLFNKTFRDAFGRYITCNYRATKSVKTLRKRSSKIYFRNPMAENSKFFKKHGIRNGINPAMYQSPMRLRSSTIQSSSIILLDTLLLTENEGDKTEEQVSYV

behaviour in 5-HT2B functional readouts [2]: true antagonist
Compound: Cc1cc(NC(=O)Nc2ccc3c(ccn3C)c2)sn1 [SB204741, N-(1-methyl-5-indolyl)-N'-(3-methyl-5-isothiazolyl)urea]
RVSP vs vehicle control-treated Su/Hx mice ([1]; osmotic pump 3 weeks, SB204741 1 mg/kg/d, VU6047534 10 mg/kg/d): significantly reduced
number of partially and fully muscularized small vessels (0-25 μm) ([1]; treatment before induction of experimental PAH): reduced the number of both partially and fully muscularized small vessels
pIC50 [3]: 7.41
number of partially and fully muscularized small vessels (0-25 μm) [4]: reduced the number of partially, but not fully, muscularized small vessels
